# Data reported in patent US5026836A, “6-sulfenamide, 6-sulfinamide and 6-sulfonamide purines, purine nucleosides, purine nucleotides, pharmaceutical compositions, and processes of making” (priority 1988, dated 1991).
# Where two headings read alike, the source gives them in different places. Starred links: 1 amine or outer side, 2 acyl side, 3 side chain; linkers in the order of their positions; H or OH if unused. Positions of bridges follow the written chain, without caps; N, C: chain ends. Non-standard residues stand in square brackets, D forms with d. Residues, ends and D or L forms follow the SMILES beside them. Chains are numbered I, II in the order given. Actinocin(9to1) = Cc1c2oc3c(C)ccc(C(=O)[*:1])c3nc-2c(C(=O)[*:2])c(N)c1=O; NMeV = CN[C@H](C(=O)O)C(C)C; Sar = CNCC(=O)O
# How the values were obtained:
# L1210 cells [1] = assay: Life span of BDF1 mice inoculated ip with 10^6 L1210 leukemia cells; assay type: in vivo, mouse; conditions: for T/C (%): ip day 1, Enantiomer A 37 mg/kg, Enantiomer B 173 mg/kg; for relative activity of the two enantiomers (words): mouse, in vivo; for Increased life span: qd days 1,3,5,7; for T/C: single QD day 1 ip (Table 14-b)
# Method: As illustrative examples of use of the compounds of the invention the following examples are given. […] These standard tests utilize protocols developed under the auspices of the Developmental Therapeutics Program, Division of Cancer Treatment, National Cancer Institute, Bethesda, Md., U.S.A. Except as otherwise indicated the tests conform to these protocols and are evaluated utilizing criteria defined by the protocols.
# (§1) Values below 25% are considered capable of producing effective therapy, those below 10% are considered good and those below 5% are considered very good. This expresses the percent of the cells which survived treatment based upon the original cells in the inoculum. Those tests expressed as increases in life span (% ILS) indicate the increased life span of the drug treated group compared to a control group.
# (§2) As an indicator of reproducible activity, compounds of the invention and other known cancer chemotherapeutic agents were screened against L1210 lymphoid leukemia in vivo utilizing the mouse as a test species. Normal NCI protocols for this test require 10^5 seed cells of the L1210 cell line.
# Cytosine Arabinoside must be given every three hours.
# Mice were inoculated intraperitoneally on day 0 with a million cells of murine leukemia L1210. Drug was given qd days 1, 4 and 7. Increased life span is the mean increase in the treated group presented as a percentage of the mean life span of control mice.
# Mice were inoculated intraperitoneally on day 0 with a million cells of murine leukemia L1210. Drugs were given qd days 1, 3, 5 and 7. Increased life span is presented as a percentage of the mean life span of control mice.
# L1210 cells [2] = assay: L1210 cells surviving treatment (% of original inoculum); assay type: in vivo, mouse; conditions: for L1210 cells surviving treatment (% of original inoculum): ip day 1, Enantiomer A 37 mg/kg, Enantiomer B 173 mg/kg
# Source text: as §1
# as §2, with “line. However for the purposes of tests with the L1210 cell line in testing the compounds of the invention for antitumor activity, a log greater, i.e. 10^6 cells were utilized.” for “line.”
# Tables 2-a and 2-b illustrate a dose response for Compound 19 against L1210 inoculated mice expressed as both increased life span compared to control and as the number of cells of the original inoculum surviving drug treatment. As is evident from the various regimens of drug treatment shown in Tables 2-a and 2-b, effective therapeutic effects are noted and a dose response to Compound 19 is evident. […] Cytosine Arabinoside must be given every three hours. Test results are given utilizing standard protocols based on mean survival time and are expressed as T/C percentages (treated animals/control animals).
# [3] = Solubility (maximum solubility); assay type: physicochemical
# [4] = tested on: Human Colon Adenocarcinoma CX-1; conditions: data from Goldin et al 1981; activity indicated at ≤20; cited from earlier work
# L1210 cells [5] = assay: Bioassay of viable L1210 cells in brain after intracranial inoculation and ip drug; assay type: in vivo, mouse; conditions: 24 hr after single ip dose (mg/kg): Methotrexate 12, Adriamycin 3, 6-Mercaptopurine 160, Cytosine Arabinoside 1200, Cyclophosphamide 140, Compound 19 173, Tiazofurin 1200, BCNU 20
# Source text: BDF1 mice were inoculated intracranially on day 0 with 1×10^5 L1210 cells. […] 24 hr after drug delivery the brains were collected, homogenized, and injected ip into untreated mice. Each mouse received the equivalent of half a brain. Thereafter, life span was monitored and, using inoculum-response data as a base of comparison, estimates were made of the numbers of viable cells in treated and control brains.
# [6] = Toxicity / maximum tolerated dosage in mice; assay type: in vivo; conditions: mouse, in vivo, ip, single QD day 1 ip, read-out: Max. tolerated dosage
# Method: In Example N other compounds of the invention were tested against L1210 cells. […] Activity in Table 14-a is tabulated as both increases in life span and as cells surviving treatment and that in table 14-b as T/C.
molecule,measurement,setting,value
"Nc1nc([S+](N)[O-])c2ncn([C@@H]3O[C@H](CO)[C@@H](O)[C@H]3O)c2n1 (single isomer, unassigned) [Enantiomer A]",% ILS,"L1210 cells [1]; 37 mg/kg/inj bid day 1, total A 70.94, B 1.26, contaminant 1.80 mg/kg",44%
same,% ILS,"L1210 cells [1]; 37 mg/kg/inj printed qid day 1, total A 177.35, B 3.15, contaminant 4.50 mg/kg",0%
same,% ILS,"L1210 cells [1]; 37 mg/kg/inj qd day 1, total A 35.47, B 0.63, contaminant 0.90 mg/kg",22%
same,% ILS,"L1210 cells [1]; 37 mg/kg/inj qid day 1, total A 141.88, B 2.52, contaminant 3.60 mg/kg",72%
same,% ILS,"L1210 cells [1]; 37 mg/kg/inj tid day 1, total A 106.41, B 1.89, contaminant 2.70 mg/kg",72%
same,T/C (%),L1210 cells [1],108.7%
same,relative activity of the two enantiomers (words),L1210 cells [1],greater activity with respect to enantiomer B because of solubility differences
same,relative activity of the two enantiomers (words),L1210 cells [1]; listed as enantiomer A,comparable activity
same,Cells surviving treatment (% of original inoc.),"L1210 cells [2]; 37 mg/kg/inj bid day 1, total A 70.94 mg/kg",10%
same,Cells surviving treatment (% of original inoc.),"L1210 cells [2]; 37 mg/kg/inj qd day 1, total A 35.47 mg/kg",64%
same,Cells surviving treatment (% of original inoc.),"L1210 cells [2]; 37 mg/kg/inj qid day 1, total A 141.88 mg/kg",1%
same,Cells surviving treatment (% of original inoc.),"L1210 cells [2]; 37 mg/kg/inj tid day 1, total A 106.41 mg/kg",1%
same,L1210 cells surviving treatment (% of original inoculum),L1210 cells [2],182.8%
same,solubility,[3],about 3.7 mg per ml
"Nc1nc([S+](N)[O-])c2ncn([C@@H]3O[C@H](CO)[C@@H](O)[C@H]3O)c2n1 (single isomer, unassigned) [Enantiomer B]",T/C (%),L1210 cells [1],144.9%
same,relative activity of the two enantiomers (words),L1210 cells [1],comparable activity
same,L1210 cells surviving treatment (% of original inoculum),L1210 cells [2],7.5%
same,solubility,[3],about 17.3 mg per ml
O=c1[nH]cc(F)c(=O)[nH]1 [5-Fluorouracil],Activity rating δT/δC,[4],88
Nc1nc2nc[nH]c2c(=S)[nH]1 [6-Thioguanine],Activity rating δT/δC,[4],81
"Nc1nc2c(ncn2[C@@H]2O[C@H](CO)[C@@H](O)[C@H]2O)c(=S)[nH]1 [6-Thioguanosine, reference compound]",Increased life span,L1210 cells [1]; 8.1 mg/kg/inj injected,48%
same,Increased life span,L1210 cells [1]; 13 mg/kg/inj injected,38%
same,Increased life span,L1210 cells [1]; 22 mg/kg/inj injected,42%
same,Increased life span,L1210 cells [1]; 37 mg/kg/inj injected,45%
same,Increased life span,L1210 cells [1]; 62 mg/kg/inj injected,42%
same,Increased life span,L1210 cells [1]; 104 mg/kg/inj injected,42%
same,Increased life span,L1210 cells [1]; 173 mg/kg/inj injected,52%
"Cc1c2oc3c(C)ccc(C(=O)N[C@@H]4C(=O)N[C@H](C(C)C)C(=O)N5CCC[C@H]5C(=O)N(C)CC(=O)N(C)[C@@H](C(C)C)C(=O)O[C@@H]4C)c3nc-2c(C(=O)N[C@@H]2C(=O)N[C@H](C(C)C)C(=O)N3CCC[C@H]3C(=O)N(C)CC(=O)N(C)[C@@H](C(C)C)C(=O)O[C@@H]2C)c(N)c1=O [Actinomycin D] (I: T[dV]P[Sar][NMeV] / II: T[dV]P[Sar][NMeV]; ester I:1-I:C, II:1-II:C; linker I:N-II:N via Actinocin(9to1))",Activity rating δT/δC,[4],73
"COc1cccc2c1C(=O)c1c(O)c3c(c(O)c1C2=O)C[C@@](O)(C(=O)CO)C[C@@H]3O[C@H]1C[C@H](N)[C@H](O)[C@H](C)O1 [Adriamycin, reference compound]",Residual cells (% of control brain),L1210 cells [5],89.5%
same,Activity rating δT/δC,[4],72
"O=NN(CCCl)C(=O)NCCCl [BCNU, reference compound]",Residual cells (% of control brain),L1210 cells [5],1.6%
same,Activity rating δT/δC,[4],63
O=NN(CCCl)C(=O)NC1CCCCC1 [CCNU],Activity rating δT/δC,[4],77
O=C(O)CCCc1ccc(N(CCCl)CCCl)cc1 [Chlorambucil],Activity rating δT/δC,[4],60
O=NN(CCCl)C(=O)N[C@H]1C(O)O[C@H](CO)[C@@H](O)[C@@H]1O (some centres unmarked) [Chlorozotocin],Activity rating δT/δC,[4],75
N.N.[Cl][Pt][Cl] [Cis-Platinum],Activity rating δT/δC,[4],66
"NSc1nc(N)nc2nc[nH]c12 [Compound 2, 2-Aminopurine-6-sulfenamide]",MTD,"[6]; DMSO vehicle, BDF1 mice",37 mg/kg
same,MTD,"[6]; NaOH vehicle, BDF1 mice",104 mg/kg
"NSc1ncnc2c1ncn2[C@@H]1O[C@H](CO)[C@@H](O)[C@H]1O [Compound 6, 9-β-D-Ribofuranosyl-9H-purine-6-sulfenamide]",Max. sol. dosage,[3],480 mg/kg
same,MTD,[6]; L1210-inoculated BDF1 mice,480 mg/kg
"C[C@H]1O[C@@H](n2cnc3c([S+](N)[O-])nc(N)nc32)[C@H](O)[C@@H]1O (stereo partly drawn) [Compound 42, 2-Amino-9-(5-deoxy-β-D-ribofuranosyl)-9H-purine-6-sulfinamide]",T/C,L1210 cells [1]; NaOH vehicle,172
same,Max. sol. dosage,[3],104 mg/kg
"C[C@H]1O[C@@H](n2cnc3c(S(N)(=O)=O)nc(N)nc32)[C@H](O)[C@@H]1O [Compound 43, 2-Amino-9-(5-deoxy-β-D-ribofuranosyl)-9H-purine-6-sulfonamide]",T/C,L1210 cells [1],130
same,Max. sol. dosage,[3],480 mg/kg
"NSc1nc(N)nc2c1ncn2[C@H]1C[C@H](O)[C@@H](CO)O1 [Compound 45, 2-Amino-9-(2-deoxy-β-D-erythro-pentofuranosyl)-9H-purine-6-sulfenamide]",T/C,L1210 cells [1],172
same,Max. sol. dosage,[3],480 mg/kg
"Nc1nc([S+](N)[O-])c2ncn([C@@H]3O[C@H](CO)[C@@H](O)[C@@H]3O)c2n1 (stereo partly drawn) [Compound 50, 2-Amino-9-β-D-arabinofuranosyl-9H-purine-6-sulfinamide]",T/C,L1210 cells [1],140
same,Max. sol. dosage,[3],800 mg/kg
"NS(=O)(=O)c1ncnc2c1ccn2[C@H]1C[C@H](O)[C@@H](CO)O1 [Compound 55, 7-(2-Deoxy-β-D-erythro-pentofuranosyl)pyrrolo[2,3-d]-pyrimidine-4-sulfonamide]",T/C,L1210 cells [1],125
same,Max. sol. dosage,[3],288 mg/kg
"O=P1(N(CCCl)CCCl)NCCCO1 (centres unmarked) [Cyclophosphamide, reference compound]",Residual cells (% of control brain),L1210 cells [5],11.5%
same,Activity rating δT/δC,[4],113
CN(C)/N=N/c1[nH]cnc1C(N)=O [DTIC],Activity rating δT/δC,[4],92
CN(C)c1nc(N(C)C)nc(N(C)C)n1 [Hexamethylmelamine],Activity rating δT/δC,[4],85
N[C@@H](Cc1ccc(N(CCCl)CCCl)cc1)C(=O)O [Melphalan],Activity rating δT/δC,[4],101
"CN(Cc1cnc2nc(N)nc(N)c2n1)c1ccc(C(=O)N[C@@H](CCC(=O)O)C(=O)O)cc1 [Methotrexate, reference compound]",Residual cells (% of control brain),L1210 cells [5],97%
same,Activity rating δT/δC,[4],66
CC1CCC(NC(=O)N(CCCl)N=O)CC1 (centres unmarked) [Methyl CCNU],Activity rating δT/δC,[4],83
CO[C@@]12[C@H](COC(N)=O)C3=C(C(=O)C(C)=C(N)C3=O)N1C[C@@H]1N[C@@H]12 [Mitomycin C],Activity rating δT/δC,[4],62
CNNCc1ccc(C(=O)NC(C)C)cc1 [Procarbazine],Activity rating δT/δC,[4],60
"NC(=O)c1csc([C@@H]2O[C@H](CO)[C@@H](O)[C@H]2O)n1 [Tiazofurin, reference compound]",% ILS,"L1210 cells [1]; single agent day 1, Compound 19 173 mg/kg, Tiazofurin 22 mg/kg (Table 13)",44%
same,Residual cells (% of control brain),L1210 cells [5],2.9%
CC[C@]1(O)C[C@@H]2CN(CCc3c([nH]c4ccccc34)[C@@](C(=O)OC)(c3cc4c(cc3OC)N(C)[C@H]3[C@@](O)(C(=O)OC)[C@H](OC(C)=O)[C@]5(CC)C=CCN6CC[C@]43[C@@H]65)C2)C1 [Vinblastine],Activity rating δT/δC,[4],119
CC[C@]1(O)C[C@H]2CN(CCc3c([nH]c4ccccc34)[C@@](C(=O)OC)(c3cc4c(cc3OC)N(C=O)[C@H]3[C@@](O)(C(=O)OC)[C@H](OC(C)=O)[C@]5(CC)C=CCN6CC[C@]43[C@@H]65)C2)C1 [Vincristine],Activity rating δT/δC,[4],89
Bleomycin,Activity rating δT/δC,[4],51
